{"source": "patent US20130171256A1", "about": "(CIMA LABS Inc., priority 2010, published 2013)", "origin": "cited, not measured here", "conditions_in_all_cases": "preclinical studies", "key": {"[1]": {"test_system": "neuronal norepinephrine reuptake"}, "dopamine reuptake": {"test_system": "dopamine reuptake"}, "[2]": {"test_system": "neuronal serotonin reuptake"}}}
{"smiles": "CN(C)CC(c1ccc(O)cc1)C1(O)CCCCC1", "note": "(centres unmarked) [O-desmethylvenlafaxine]", "values": [{"measurement": "inhibition of neuronal norepinephrine reuptake", "setting": "[1]", "value": "potent inhibitors"}, {"measurement": "inhibition of dopamine reuptake", "setting": "dopamine reuptake", "value": "weak inhibitors"}, {"measurement": "inhibition of neuronal serotonin reuptake", "setting": "[2]", "value": "potent inhibitors"}]}
{"smiles": "COc1ccc(C(CN(C)C)C2(O)CCCCC2)cc1", "note": "(centres unmarked) [Venlafaxine]", "values": [{"measurement": "inhibition of neuronal norepinephrine reuptake", "setting": "[1]", "value": "potent inhibitors"}, {"measurement": "inhibition of dopamine reuptake", "setting": "dopamine reuptake", "value": "weak inhibitors"}]}
